Laboratory results from patent US20120101093A1, “SUBSTITUTED IMIDAZO[1,2-A]PYRIDINE DERIVATIVES, PHARMACEUTICAL COMPOSITIONS, AND METHODS OF USE AS BETA-SECRETASE INHIBITORS” (HIGH POINT PHARMACEUTICALS, LLC, priority 2009, published 2012).

Tests used:
[1] = target: T1, BACE-1 enzyme (Homo sapiens, UniProt P56817); assay: BACE Fluorescence Resonance Energy Transfer (FRET) Assay; type: biochemical; conditions: pH 4-4.5, 30 min pre-incubation, about 1.5 hours reaction
T1 construct: purchased R & D Systems 931AS
How it was run: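 BACE-1 enzyme pre-incubated 30 min with compound in 7.5% DMSO in 50 mM sodium acetate pH 4-4.5, 0.01% CHAPS, 0.0125% Triton X-100, 0.006% EDTA. Rhodamine/quencher peptide substrate added; ~1.5 h at room temperature, fluorescence read at 540/585 nm. IC50 or percent inhibition at one concentration.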

[2] = test system: Aβ1-40 secreted from HEK293 cells stably expressing wildtype human APP695 protein (HEK-APPwt cells); assay: Aβ Cell Based Assay (Aβ1-40 secretion, ELISA); conditions: Homo sapiens, HEK293, 6 h, 6 hours incubation, reduction of Aβ1-40 secretion
Experimental: Aβ Cell Based Assay Procedure
In the following assay, the proteolytic activity of BACE in cells exposed to varying concentrations of a compound of interest is measured by observing the amount of Aβ1-40 secreted from HEK293 cells (Human Embryonic Kidney epithelial cell line) stably expressing wildtype human APP695 protein (HEK-APPwt cells).
HEK-APPwt cells were grown in high glucose DMEM (Dulbecco's Modified Eagles Medium SIGMA Cat.# D5796) supplemented with 25 mM HEPES (4-(2-hydroxyethyl)-1-piperazineethanesulfonic acid) (pH 7.4) (Invitrogen Cat.# 15630-114), 0.1 mM NEAA (Non-essential Amino Acids) (BioWhittaker Cat. #13-114E), 10% fetal bovine serum (SIGMA Cat. #F4135) and 250 μg/mL hygromycin (Invitrogen Cat. #10687-010) in T-225 flasks at 37° C. with 5% CO2 and humidity control.
Test compounds were initially prepared in DMSO and diluted with DMEM media containing 2% FBS (Fetal bovine serum). Ten standard compound solutions were prepared having a range of concentrations. The standard compound solutions were used to determine the EC50 of the test compound. The range of concentrations chosen may depend on the compound's predicted potency.
To prepare the cells for the assay, a flask containing HEK-APPwt cells were trypsinized briefly (1 mL trypsin), and once the cells detached, 4 mL of 10% FBS-DMEM was added to the flask. The detached cells were centrifuged at 900 rpm for 5 min to form a pellet.
The HEK-APPwt cell pellet was re-suspended with 10 mL DMEM media containing 2% FBS. 80 μL of the cell suspension was added to each well of a 96-well cell culture plate to give 100×10^4cells/ml. 10 μL of a standard compound solution was added to each well of the 96-well cell culture plate followed by 10 μL of Alamar blue solution. The cells were incubated at 37° C. in a 5% CO2 incubator for 6 hours.
At the end of the incubation, the plates were removed from incubator, and the supernatant was collected. A≈1-40 concentration in the medium was measured by using a commercial Aβ1-X ELISA kit (IBL, Japan Cat. #27729). Briefly, the ELISA plates were coated with an anti-human AO (N)(82E1) mouse IgG monoclonal antibody. A horseradish peroxidase conjugated anti-human Aβ11-28 mouse IgG monoclonal antibody was used for detection. The cell culture supernatant was diluted with EIA buffer +protease inhibitors (kit buffer containing protease inhibitors (1 mL PI/30 mL buffer)). A 100 μL aliquot of the diluted supernatant was added to each well of the ELISA plate and incubated for 6 hrs at 4° C. The ELISA plate was washed 8 times with phosphate buffered saline (PBS) containing 0.05% Tween 20.
A 100 μL of detection antibody was then added and incubated for 1 hour at 4° C. The plate was washed 8 times with PBS buffer containing 0.05% Tween 20 followed by addition of 100 μL of the chromogen tetramethylbenzidine (TMB). The plate was incubated in the dark at room temperature for about 30 min and a stop solution (1N H2SO4) was added.
The intensity of the color developed was measured at 450 nm. The optical density at 450 nm (OD450) is proportional to the concentration of human Aβ1-40 secreted by the cell. As a reference, N-[N-(3,5-difluorophenacetyl-L-alanyl)]-S-phenylglycine t-butyl ester (DAPT, a γ-secretase inhibitor) was used to indicate 100% inhibition of BACE activity. Thus, the assay measures the ability of a compound of interest to reduce Aβ1-40 secretion. For select compounds, compound potency is reported in Table 3 as the EC50 by calculating the percent inhibition at all concentration levels and the data were fit with non-linear curve fitting algorithm using GraphPad Prism.

T1 sequence (P56817 46-457 limits assumed): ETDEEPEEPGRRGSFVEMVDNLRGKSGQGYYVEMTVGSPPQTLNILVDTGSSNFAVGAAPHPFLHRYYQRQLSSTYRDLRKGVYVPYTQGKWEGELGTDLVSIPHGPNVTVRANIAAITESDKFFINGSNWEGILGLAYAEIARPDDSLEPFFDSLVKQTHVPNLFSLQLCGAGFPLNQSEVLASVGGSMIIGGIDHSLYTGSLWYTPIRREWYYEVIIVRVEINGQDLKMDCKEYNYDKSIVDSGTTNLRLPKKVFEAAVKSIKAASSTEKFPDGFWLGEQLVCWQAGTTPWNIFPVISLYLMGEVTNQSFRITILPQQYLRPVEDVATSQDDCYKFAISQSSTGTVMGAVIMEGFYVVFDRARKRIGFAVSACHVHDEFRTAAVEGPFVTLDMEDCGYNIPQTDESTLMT

Structure (SMILES) | IC50 [1] [µM] | EC50 [2] [µM]
Cc1cccn2cc(C(=O)Nc3nc4cc(-c5cccc(C(F)(F)F)c5)ccc4[nH]3)nc12 [Example 32, 8-Methyl-imidazo[1,2-a]pyridine-2-carboxylic acid [5-(3-trifluoromethyl-phenyl)-1H-benzoimidazol-2-yl]-amide] | 0.52 | 1.36
CCOc1cccc(-c2ccc3[nH]c(NC(=O)c4cn5c(C)cccc5n4)nc3c2)c1 [Example 35, 5-Methyl-imidazo[1,2-a]pyridine-2-carboxylic acid [5-(3-ethoxy-phenyl)-1H-benzoimidazol-2-yl]-amide] | 0.82 | 2.3
Cc1cccc2nc(C(=O)Nc3nc4cc(OCc5ccccc5C(F)(F)F)ccc4[nH]3)cn12 [Example 42, 5-Methyl-imidazo[1,2-a]pyridine-2-carboxylic acid [5-(2-trifluoromethyl-benzyloxy)-1H-benzoimidazol-2-yl]-amide] | 0.38 | 3.45
Cc1cccc2nc(C(=O)Nc3nc4cc(-c5ccc(Cl)c(C(F)(F)F)c5)ccc4[nH]3)cn12 [Example 47, 5-Methyl-imidazo[1,2-a]pyridine-2-carboxylic acid [5-(4-chloro-3-trifluoromethyl-phenyl)-1H-benzoimidazol-2-yl]-amide] | 0.42 | 0.08
Cc1cccc2nc(C(=O)Nc3nc4cc(-c5ccc(F)c(C(F)(F)F)c5)ccc4[nH]3)cn12 [Example 48, 5-Methyl-imidazo[1,2-a]pyridine-2-carboxylic acid [5-(4-fluoro-3-trifluoromethyl-phenyl)-1H-benzoimidazol-2-yl]-amide] | 0.49 | 0.18
Cc1cccn2cc(C(=O)Nc3nc4cc(-c5ccc(C(F)(F)F)cc5)ccc4[nH]3)nc12 [Example 50, 8-Methyl-imidazo[1,2-a]pyridine-2-carboxylic acid [5-(4-trifluoromethyl-phenyl)-1H-benzoimidazol-2-yl]-amide] | 0.32 | 4.41
Cc1cccn2cc(C(=O)Nc3nc4cc(-c5cccc(Cl)c5)ccc4[nH]3)nc12 [Example 51, 8-Methyl-imidazo[1,2-a]pyridine-2-carboxylic acid [5-(3-chloro-phenyl)-1H-benzoimidazol-2-yl]-amide] | 0.96 | 1.84
O=C(Nc1nc2cc(OCc3ccc(C(F)(F)F)cc3)ccc2[nH]1)c1cn2cc(-c3ccccc3)ccc2n1 [Example 52, 6-Phenyl-imidazo[1,2-a]pyridine-2-carboxylic acid [5-(4-trifluoromethyl-benzyloxy)-1H-benzoimidazol-2-yl]-amide] | 5.28 | 0.51
COc1cc(-c2ccc3[nH]c(NC(=O)c4cn5c(C)cccc5n4)nc3c2)cc(C(F)(F)F)c1 [Example 54, 5-Methyl-imidazo[1,2-a]pyridine-2-carboxylic acid [5-(3-methoxy-5-trifluoromethyl-phenyl)-1H-benzoimidazol-2-yl]-amide] | 0.39 | 0.98
O=C(Nc1nc2cc(-c3ccc(F)c(C(F)(F)F)c3)ccc2[nH]1)c1cn2c(F)cccc2n1 [Example 58, 5-Fluoro-imidazo[1,2-a]pyridine-2-carboxylic acid [5-(4-fluoro-3-trifluoromethyl-phenyl)-1H-benzoimidazol-2-yl]-amide] | 0.76 | 0.4
Cc1ccc2nc(C(=O)Nc3nc4cc(-c5cccc(C(F)(F)F)c5)ccc4[nH]3)cn2c1 [Example 59, 6-Methyl-imidazo[1,2-a]pyridine-2-carboxylic acid [5-(3-trifluoromethyl-phenyl)-1H-benzoimidazol-2-yl]-amide] | 0.41 | 3.16
Cc1cccc2nc(C(=O)Nc3nc4cc(CCc5ccc(C(F)(F)F)cc5)ccc4[nH]3)cn12 [Example 62, 5-Methyl-imidazo[1,2-a]pyridine-2-carboxylic acid {5-[2-(4-trifluoromethyl-phenyl)-ethyl]-1H-benzoimidazol-2-yl}-amide] | 0.4 | 0.87
Cc1cccc2nc(C(=O)Nc3nc4cc(-c5ccc(F)c(F)c5)ccc4[nH]3)cn12 [Example 63, 5-Methyl-imidazo[1,2-a]pyridine-2-carboxylic acid [5-(3,4-difluoro-phenyl)-1H-benzoimidazol-2-yl]-amide] | 1.15 | 1.32
Cc1cccc2nc(C(=O)Nc3nc4cc(-c5ccc(F)c(Cl)c5)ccc4[nH]3)cn12 [Example 64, 5-Methyl-imidazo[1,2-a]pyridine-2-carboxylic acid [5-(3-chloro-4-fluoro-phenyl)-1H-benzoimidazol-2-yl]-amide] | 0.31 | 0.14
Cc1cccn2cc(C(=O)Nc3nc4cc(-c5ccc(F)c(Cl)c5)ccc4[nH]3)nc12 [Example 65, 8-Methyl-imidazo[1,2-a]pyridine-2-carboxylic acid [5-(3-chloro-4-fluoro-phenyl)-1H-benzoimidazol-2-yl]-amide] | 0.3 | 0.96

Second part, led by results:

IC50 [1] [µM] | Structure (SMILES) | EC50 [2] [µM]
0.3 | Cc1cccc2nc(C(=O)Nc3nc4cc(OCc5cc(F)cc(C(F)(F)F)c5)ccc4[nH]3)cn12 [Example 43, 5-Methyl-imidazo[1,2-a]pyridine-2-carboxylic acid [5-(3-fluoro-5-trifluoromethyl-benzyloxy)-1H-benzoimidazol-2-yl]-amide] | 0.58
0.26 | Cc1cccc2nc(C(=O)Nc3nc4cc(-c5cccc(OC(F)(F)F)c5)ccc4[nH]3)cn12 [Example 46, 5-Methyl-imidazo[1,2-a]pyridine-2-carboxylic acid [5-(3-trifluoromethoxy-phenyl)-1H-benzoimidazol-2-yl]-amide] | 0.63
0.17 | O=C(Nc1nc2cc(OCc3ccc(C(F)(F)F)cc3)ccc2[nH]1)c1cn2c(C(F)(F)F)cccc2n1 [Example 49, 5-Trifluoromethyl-imidazo[1,2-a]pyridine-2-carboxylic acid [5-(4-trifluoromethyl-benzyloxy)-1H-benzoimidazol-2-yl]-amide] | 8.76
0.26 | Cc1cccc2nc(C(=O)Nc3nc4cc(-c5cccc(C(F)(F)F)c5F)ccc4[nH]3)cn12 [Example 53, 5-Methyl-imidazo[1,2-a]pyridine-2-carboxylic acid [5-(2-fluoro-3-trifluoromethyl-phenyl)-1H-benzoimidazol-2-yl]-amide] | 0.23
0.26 | O=C(Nc1nc2cc(-c3ccc(F)c(C(F)(F)F)c3)ccc2[nH]1)c1cn2c(C(F)(F)F)cccc2n1 [Example 55, 5-Trifluoromethyl-imidazo[1,2-a]pyridine-2-carboxylic acid [5-(4-fluoro-3-trifluoromethyl-phenyl)-1H-benzoimidazol-2-yl]-amide] | 2.36
0.28 | Cc1cccc2nc(C(=O)Nc3nc4ccc(-c5cc(F)cc(Cl)c5)cc4[nH]3)cn12 [Example 56, 5-Methyl-imidazo[1,2-a]pyridine-2-carboxylic acid [6-(3-chloro-5-fluoro-phenyl)-1H-benzoimidazol-2-yl]-amide] | 0.24
0.22 | Cc1cccc2nc(C(=O)Nc3nc4cc(/C=C/c5ccc(C(F)(F)F)cc5)ccc4[nH]3)cn12 [Example 61, 5-Methyl-imidazo[1,2-a]pyridine-2-carboxylic acid {5-[(E)-2-(4-trifluoromethyl-phenyl)-vinyl]-1H-benzoimidazol-2-yl}-amide] | 0.28
